In the supplement of paper PMC11451515:

Assays:
Test in all cases: AUC of viability dose-response curve (% viability x log10 dose units); higher = less sensitive
Settings in all cases: 48 h
NOMO1 = test system: NOMO1
In short: (§1)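 Over 48 h at 37°C, leukemia cells in 1536-well plates (500 or 1000 cells/well), adapted to each medium, received library compounds in DMSO at 11 threefold doses from 47 μM to 0.79 nM. CellTiter-Glo One luminescence, normalised per plate to DMSO and cell-free wells, was fitted by a four-parameter log-logistic function of log10 dose. The area under the curve was then integrated by trapezoidal rule, after scaling curves above full viability and removing those that failed quality control.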

P12-Ichikawa = test system: P12-Ichikawa
In short: as §1

SEM cells = test system: SEM cells
In short: as §1

[1] = RPMI 5 mM glucose + 10% dialyzed FBS

| SMILES | AUC of viability dose-response curve (NOMO1; HPLM + 10% dialyzed FBS) | AUC of viability dose-response curve (NOMO1; RPMI 5 mM glucose + 10% FBS) | AUC of viability dose-response curve (NOMO1; [1]) | AUC of viability dose-response curve (P12-Ichikawa; HPLM + 10% dialyzed FBS) | AUC of viability dose-response curve (P12-Ichikawa; RPMI 5 mM glucose + 10% FBS) | AUC of viability dose-response curve (P12-Ichikawa; [1]) | AUC of viability dose-response curve (SEM cells; HPLM + 10% dialyzed FBS) | AUC of viability dose-response curve (SEM cells; RPMI 5 mM glucose + 10% FBS) | AUC of viability dose-response curve (SEM cells; [1]) |
| --- | --- | --- | --- | --- | --- | --- | --- | --- | --- |
| O=C(O)CCC1CCC(c2cc(F)ccc2F)([S+](=O)([O-])c2ccc(Cl)cc2)CC1 (configuration not stated) | 373 | 357 | 378 | 403 | 412 | 428 | 464 | 470 | 468 |
| CN[C@H]1CCC2=CC(=C(OC)C(=C2C/3=C/C=C(OC)\C(=O)/C=C13)OC)OC | 205 | 174 | 206 | 151 | 147 | 158 | 159 | 144 | 148 |
| CC1=C(C)C(=O)C(C(CCCCCC(=O)O)c2ccccc2)=C(C)C1=O (configuration not stated) | 334 | 293 | 318 | 387 | 414 | 362 | 301 | 301 | 303 |
| CC(C)OC(=O)C(C(=O)OC(C)C)=C1S\C=C/S1 | 425 | 435 | 437 | 443 | 433 | 424 | 458 | 446 | 438 |
| Cc1onc(-c2ccccc2Cl)c1C(=O)N[C@@H]1C(=O)N2[C@@H]1SC(C)(C)[C@@H]2C(=O)[O-] | 455 | 437 | 424 | 469 | 451 | 456 | 402 | 435 | 464 |
| OC[C@H]1O[C@H]([C@H](O)[C@@H]1O)N2\C=C/C(=O)NC2=O | 448 | 429 | 455 | 473 | 456 | 466 | 463 | 447 | 450 |
| CC(C)C1NC(=O)C(NC(=O)C2=C3\N=C\4/C(=C(C)\C(=O)\C(=C4C(=O)NC5C(C)OC(=O)C(C(C)C)N(C)C(=O)CN(C)C(=O)C6CCCN6C(=O)C(NC5=O)C(C)C)N)OC3=C(C)C=C2)C(C)OC(=O)C(C(C)C)N(C)C(=O)CN(C)C(=O)C7CCCN7C1=O (configuration not stated) | 27.9 | 28.1 | 23 | 31.2 | 24.5 | 38 | 26.3 | 20.8 | 23.4 |
| CCOC(=O)N1CCN(/[N+]([O-])=N/Oc2ccc([N+](=O)[O-])cc2C#N)CC1 | 390 | 383 | 382 | 328 | 324 | 328 | 331 | 327 | 331 |
